Results from patent US4871723A, “Method for treating psoriasis by externally administering to a patient a pharmaceutical composition containing active-type vitamin D” (priority 1984, dated 1989).
Read-outs that look alike come from different tables or passages of the source.

Tests used:
[1] = amount of vitamin D3 in femoral muscles of rats 2 hours after ointment application or oral administration; assay type: in vivo, male Wistar-strain rats
Method: (ii) Hair was removed from the femoral parts of five male Wistar-strain rats (body weight 220 to 230 g), and 100 mg of the ointment prepared in (i) was well rubbed into the hair-removed part of each animal. Two hours later, the rats were sacrificed, and the skin at the ointment-administeredsite was carefully removed and the muscles inside were taken out.

psoriasis = settings: clinical data, cited from earlier work
psoriasis vulgaris = assay: therapeutic effect of ointment on psoriasis vulgaris of a person; assay type: in vivo; set-up: key to degree of severity: 4: very serious; 3: serious; 2: medium; 1: light; 0: disappeared
Method: (i) A suitable amount of 1α,24(R)-dihydroxycholecalciferol was dissolved in diisopropyl adipate, and the solution was uniformly mixed with white vaseline to form an ointment. The mixing ratio of diisopropyl adipate to white vaseline was always maintained at 1:4 by weight, and the concentration of 1α,24(R)-dihydroxycholecalciferol in the ointment was adjusted to 400 micrograms/30 mg, 40 micrograms/30 mg, and 4 micrograms/30 mg.
(ii) Each of the three ointment thus prepared was applied to the site of psoriasis vulgaris of a person, and their therapeutic effects were evaluated. Specifically, ±he ointment having a 1α,24(R)-(OH)2 -D3 concentration of 400 micrograms/30 mg was applied twice daily each in an amount of 30 mg to psoriasis vulgaris at the lower part of the right femur (diseased part A). The ointment having a 1α,24(R)-(OH)2 -D3 concentration of 40 micrograms/[…] was applied twice a day each in an amount of 30 mg to psoriasis vulgaris at the lower part of the left femur (diseased part B). The ointment having a 1α,24(R)-(OH concentration of 4 micrograms/30 mg was applied twice a day each in an amount of 30 mg to psoriasis vulgaris at the middle part of the right femur (the diseased part C).
The therapeutic effects were evaluated on a scale of 5 grades as follows: […]

[2] = control group, oral 0.5 microgram
[3] = ointment-applied group, 100 mg ointment (5 micrograms/g)

In the case of `C=C1/C(=C\C=C2/CCC[C@]3(C)[C@@H]([C@H](C)CCCC(C)C)CC[C@@H]23)C[C@@H](O)C[C@@H]1O` [Example 1α-OH--D3, 1α-hydroxycholecalciferol], the “Amounts in the femoral muscles, 1st time (5 rats)” value [1, 2] is reported as 103, the “Amounts in the femoral muscles, 2nd time (5 rats)” value [1, 2] is reported as 98 and the “Amounts in the femoral muscles, 3rd time (5 rats)” value [1, 2] is reported as 126. For the same compound, the “Amounts in the femoral muscles, 1st time (5 rats)” value [1, 3] was 441, the “Amounts in the femoral muscles, 2nd time (5 rats)” value [1, 3] was 607 and the “Amounts in the femoral muscles, 3rd time (5 rats)” value [1, 3] was 588. The “effectiveness for the treatment of psoriasis” value (shortened to “effectiveness”) (psoriasis; oral administration) was “effective”.

For `C=C1/C(=C\C=C2/CCC[C@]3(C)[C@@H]([C@H](C)CCCC(C)(C)O)CC[C@@H]23)C[C@@H](O)C[C@@H]1O` [1α,25-(OH)2 --D3, 1α,25-dihydroxycholecalciferol], the “effectiveness” value (psoriasis; external application) is listed as “effective” and the “effectiveness” value (psoriasis; oral administration) is listed as “effective”.

In the case of `C=C1/C(=C\C=C2/CCC[C@]3(C)[C@@H]([C@H](C)CC[C@@H](O)C(C)C)CC[C@@H]23)C[C@@H](O)C[C@@H]1O` [1α,24(R)-(OH)2 -D3, 1α,24(R)-dihydroxycholecalciferol], the relapse of lesion (psoriasis vulgaris; after more than 30 days from stopping of drug application, diseased parts A to C) is reported as “no relapse of lesion was noted”, the “therapeutic effect on psoriasis vulgaris” value (psoriasis vulgaris; external application, ointment) is reported as “good therapeutic effect” and the “improvement of diseased parts” value (psoriasis vulgaris; five days after beginning of treatment, diseased parts A to C (400, 40, 4 micrograms/30 mg, twice daily), original severity 4) is reported as “an improvement was observed in all cases”. It also gave a degree of severity (psoriasis vulgaris; ten days, all cases cured, diseased parts A to C (400, 40, 4 micrograms/30 mg, twice daily), original severity 4) of 0.
